Experimental data reported in paper PMC11995724, “Antibiotic target discovery by integrated phenotypic and activity-based profiling of electrophilic fragments” (Cell chemical biology, 2025).
Where a name gives a salt, the structure may show the parent alone.

assay: in vitro; conditions: human, hek293t cells

Structure (SMILES)	viability at 48 h, 25 µM [%]
O=C(CCl)NC(C1CC1)C1CC1 [6-C22, 2-chloro-N-(dicyclopropylmethyl)acetamide]	66.4
O=C(CCl)Nc1nc2c(s1)CCc1ccccc1-2 [6-D03, 2-chloro-N-{4H,5H-naphtho[1,2-d][1,3]thiazol-2-yl}acetamide]	0.611
Cc1nc2ccccc2n(CCCN(C)C(=O)CCl)c1=O [6-D04, 2-chloro-N-methyl-N-[3-(3-methyl-2-oxo-1,2-dihydroquinoxalin-1-yl)propyl]acetamide]	1.73
CC(Cl)C(=O)N(C)C(C)c1ccccc1N1CCCS1(=O)=O (centres unmarked) [6-D05, 2-chloro-N-{1-[2-(1,1-dioxo-1lambda6,2-thiazolidin-2-yl)phenyl]ethyl}-N-methylpropanamide]	104
CC(Cl)C(=O)Nc1ccc([N+](=O)[O-])cc1C(F)(F)F (centres unmarked) [6-D06, 2-chloro-N-[4-nitro-2-(trifluoromethyl)phenyl]propanamide]	98.9
CC(Cl)C(=O)N1CCNC(=O)C1c1c(F)cccc1Cl (centres unmarked) [6-D07, 3-(2-chloro-6-fluorophenyl)-4-(2-chloropropanoyl)piperazin-2-one]	107
Cn1cc(CN(C(=O)CCl)c2ccc(F)cc2)cn1 [6-D08, 2-chloro-N-(4-fluorophenyl)-N-[(1-methyl-1H-pyrazol-4-yl)methyl]acetamide]	2.1
Cc1ncccc1NC(=O)[C@H](C)NC(=O)C(C)Cl (stereo partly drawn) [6-D09, 2-chloro-N-[(1S)-1-[(2-methylpyridin-3-yl)carbamoyl]ethyl]propanamide]	99.8
CC(Cl)C(=O)NC(=O)NC12CC3CC(CC(C3)C1)C2 (centres unmarked) [6-D10, 1-(adamantan-1-yl)-3-(2-chloropropanoyl)urea]	101
O=C(CCl)NCC(c1nccs1)N1CCCC1 (centres unmarked) [6-D11, 2-chloro-N-[2-(pyrrolidin-1-yl)-2-(1,3-thiazol-2-yl)ethyl]acetamide hydrochloride]	92.9
O=C(CCl)Nc1ccccc1C(=O)Nc1ccc(F)cc1 [6-D12, 2-(2-chloroacetamido)-N-(4-fluorophenyl)benzamide]	0.805
CC(Cl)C(=O)N[C@H](C)c1cnnn1C (stereo partly drawn) [6-D13, 2-chloro-N-[(1R)-1-(1-methyl-1H-1,2,3-triazol-5-yl)ethyl]propanamide]	103
CC(Cl)C(=O)N1CCCc2c1ccnc2N(C)C (centres unmarked) [6-D14, 2-chloro-1-[5-(dimethylamino)-1,2,3,4-tetrahydro-1,6-naphthyridin-1-yl]propan-1-one]	109
CC1=C(c2ccco2)CN(C(=O)C(C)Cl)CC1 (centres unmarked) [6-D15, 2-chloro-1-[5-(furan-2-yl)-4-methyl-1,2,3,6-tetrahydropyridin-1-yl]propan-1-one]	103
CC(Cl)C(=O)N1CCCC1CC(=O)c1cnn(C)c1 (centres unmarked) [6-D16, 2-chloro-1-{2-[2-(1-methyl-1H-pyrazol-4-yl)-2-oxoethyl]pyrrolidin-1-yl}propan-1-one]	116
CC(CO)N(Cc1ccccc1Cl)C(=O)CCl (centres unmarked) [6-D17, 2-chloro-N-[(2-chlorophenyl)methyl]-N-(1-hydroxypropan-2-yl)acetamide]	1.39
CC(Cl)C(=O)N(CCc1ccc(F)cc1F)C(C)C (centres unmarked) [6-D18, 2-chloro-N-[2-(2,4-difluorophenyl)ethyl]-N-(propan-2-yl)propanamide]	101
Cc1ccc(C2CS(=O)(=O)CCN2C(=O)C(C)Cl)o1 (centres unmarked) [6-D19, 4-(2-chloropropanoyl)-3-(5-methylfuran-2-yl)-1lambda6-thiomorpholine-1,1-dione]	107
CC(Cl)C(=O)N[C@H]1C[C@H](Cn2cncn2)C1 (some centres unmarked) [6-D20, 2-chloro-N-[(1r,3r)-3-[(1H-1,2,4-triazol-1-yl)methyl]cyclobutyl]propanamide]	105

Structure (SMILES)	viability at 48 h, 25 µM [%]
COC1(CNC(=O)CCl)CCC(C(F)F)CC1 (centres unmarked) [6-D21, 2-chloro-N-{[4-(difluoromethyl)-1-methoxycyclohexyl]methyl}acetamide]	52.3
CC(Cl)C(=O)N(Cc1ccccc1)C1C=CS(=O)(=O)C1 (centres unmarked) [6-D22, N-benzyl-2-chloro-N-(1,1-dioxo-2,3-dihydro-1lambda6-thiophen-3-yl)propanamide]	98
Cc1ccc(CN(C(=O)CCl)C2CC2)o1 [6-E03, 2-chloro-N-cyclopropyl-N-[(5-methylfuran-2-yl)methyl]acetamide]	0.647
O=C(CCl)NCc1[nH]nc2c1CCCC2 [6-E04, 2-chloro-N-[(4,5,6,7-tetrahydro-2H-indazol-3-yl)methyl]acetamide]	59.9
CC(Cl)C(=O)NC(=O)NCc1cccs1 (centres unmarked) [6-E05, 3-(2-chloropropanoyl)-1-[(thiophen-2-yl)methyl]urea]	106
Cc1c(NC(=O)C(C)Cl)c(=O)n(-c2ccccc2)n1C (centres unmarked) [6-E06, 2-chloro-N-(1,5-dimethyl-3-oxo-2-phenyl-2,3-dihydro-1H-pyrazol-4-yl)propanamide]	109
CC(Cl)C(=O)N1CC(=O)Nc2ccccc21 (centres unmarked) [6-E07, 4-(2-chloropropanoyl)-1,2,3,4-tetrahydroquinoxalin-2-one]	117
CC(Cl)C(=O)Nc1cccc([N+](=O)[O-])c1 (centres unmarked) [6-E08, 2-chloro-N-(3-nitrophenyl)propanamide]	98.7
O=C(CCl)Nc1cc(-n2nnnc2C2CC2)ccc1F [6-E09, 2-chloro-N-[5-(5-cyclopropyl-1H-1,2,3,4-tetrazol-1-yl)-2-fluorophenyl]acetamide]	2.11
Cc1cc(C)c(NC(=O)C(C)Cl)c(Cl)c1 (centres unmarked) [6-E10, 2-chloro-N-(2-chloro-4,6-dimethylphenyl)propanamide]	109
CC(Cl)C(=O)NCCC1=CCCCC1 (centres unmarked) [6-E11, 2-chloro-N-[2-(cyclohex-1-en-1-yl)ethyl]propanamide]	99
O=C(CCl)NC(c1ccccc1)C1CCCCC1 (centres unmarked) [6-E12, 2-chloro-N-[cyclohexyl(phenyl)methyl]acetamide]	1.12
Cc1nnnn1-c1ccc(F)c(NC(=O)CCl)c1 [6-E13, 2-chloro-N-[2-fluoro-5-(5-methyl-1H-1,2,3,4-tetrazol-1-yl)phenyl]acetamide]	1.24
O=C(CCl)NCCc1cccc2ccccc12 [6-E14, 2-chloro-N-[2-(naphthalen-1-yl)ethyl]acetamide]	4.85
CCN(C(=O)CCl)c1ccccc1 [6-E15, 2-chloro-N-ethyl-N-phenylacetamide]	1.62
CCCC(=O)N1CCC(NC(=O)CCl)c2ccccc21 (centres unmarked) [6-E16, N-(1-butanoyl-1,2,3,4-tetrahydroquinolin-4-yl)-2-chloroacetamide]	17.5
CC1CCN(Cc2csc(NC(=O)CCl)n2)CC1 [6-E17, 2-chloro-N-{4-[(4-methylpiperidin-1-yl)methyl]-1,3-thiazol-2-yl}acetamide hydrochloride]	0.0269
O=C(CCl)NCC1(c2ccc(F)cc2)CCCC1 [6-E18, 2-chloro-N-{[1-(4-fluorophenyl)cyclopentyl]methyl}acetamide]	5.22
O=C(CCl)NCCc1ncc(F)cn1 [6-E19, 2-chloro-N-[2-(5-fluoropyrimidin-2-yl)ethyl]acetamide]	104
